Read-outs that look alike come from different tables or passages of the source.
Tests used:
[1] = system: LnCAP human prostate cancer cells; test: LnCAP Gene Expression; assay type: cell-based; details: Homo sapiens, LNCaP
[2] = system: ORX Wistar male rats; test: In Vivo Study to Explore Direct Antagonist Effect of Example 1 in the Presence of TE; parameters: species or system rat
Protocol: Route of administration for all groups except TE is oral. TE is administered subcutaneously. At the end of 8 weeks of daily dosing, rats are euthanized, weighed & tissue harvested. Levator ani, prostates, and seminal vesicles are collected from each animal. Results are plotted as means±SE.

[3] = system: Orx rats; test: Orchidectomized Rat Assay; assay type: in vivo; details: PTH 10 ug/Kg/d sc, once daily 2 months
[4] = ORX + TE 1 mg/kg/d (control group of Dunnett's comparison)
[5] = ORX + TE 1 mg/kg/d sc alone, 8 weeks

C[C@]1(O)CC[C@H]2[C@@H]3CCC4=CC(=O)CCC4=C3C=C[C@@]21C [Example R1881]
EC50 ([1]; AR gene, read-out: LnCAP Gene Expression EC50 (nM) AR): 0.035 nM | EC50 ([1]; CLUSTERIN gene, read-out: LnCAP Gene Expression EC50 (nM) CLUSTERIN): 0.37 nM | EC50 ([1]; PSA gene, read-out: LnCAP Gene Expression EC50 (nM) PSA): 0.034 nM

CCCCCCC(=O)O[C@H]1CC[C@H]2[C@@H]3CCC4=CC(=O)CC[C@]4(C)[C@H]3CC[C@]12C [TE, testosterone enanthate, reference compound]
Prostate Weights, Abs(Dif) − LSD [2, 4]: −0.15 | Seminal Vesicle Wet Weights, Abs(Dif) − LSD [2, 4]: −0.52 | Prostate Weight, % Sham [2, 5]: 45.5 % Sham | SV Weight, % Sham [2, 5]: 58.5 % Sham

PTH: PTH (1-38) (Zeneca (Cambridge Research Biochemicals)), given sc as an injection (SVSEIQLMHNLGKHLNSMERVEWLRKKLQDVHNFVALG; Parathyroid hormone; UniProt P01270 32-69, looked up, fragment) [reference compound]
SV Weight, % Sham [3]: 5.6 % Sham

— patent US10799478B2, “Treatment of androgen deprivation therapy associated symptoms” (priority 2014, dated 2020)
